Results: patent US20100150938A1, “METHODS AND COMPOSITIONS FOR REDUCING INFLAMMATION AND TREATING INFLAMMATORY DISORDERS” (UNIVERSITY OF MASSACHUSETTS, priority 2008, published 2010)

What was measured:
[1] = system: ASC; experiment: ASC-CFP microglia cell line, ASC clustering; type: cell-based, mouse; details: LPS-primed ASC-CFP microglia, 3 h after stimulation
Text: Human ASC was fused to CFP using BgIII/BamHI in pEF-BOS-CFP. Subsequently, ASC-CFP was cloned using XhoI and NotI into a modified form of FUGW (FUGW-XN). FUGW-XN was modified by replacing GFP with a novel cut site that created XhoI and NotI compatible ends upon Esp3I digestion.
Lentivirus was produced in 293T cells transfected with the FUGW based expression vector coding for ASC-CFP, lentiviral packaging plasmid containing gag, pol and rev genes (pCMV-dR8.91) and envelope plasmid (VSV-G) using TransIT-LT1 transfection reagent (Minis Bio, MIR 2300/5/6) as previously described^46. One day after transfection, medium was replaced and after one additional day of culture supernatants containing the lentivirus was removed, filtered and used to infect immortalized microglia cells.
For experiments, ASC-CFP microglial cells were seeded in duplicate into confocal dishes, stimulated as indicated. A647-labeled cholera toxin subunit B (1:1000) was added to stain cellular membranes. Cells were subsequently imaged using confocal microscopy (Leica SP2 AOBS). Cells were fixed and 5 random fields were imaged in duplicate for quantification.
First, we stably transduced microglial cell cultures with a fusion protein of ASC and cyan fluorescent protein (CFP). ASC forms large oligomers upon its activation, leading to visible changes in the cytoplasmic fluorescence pattern of ASC-CFP. […]

[2] = system: mouse macrophages; experiment: IL-1β release from LPS-primed mouse macrophages (bone marrow-derived, B6-MCLs), ELISA; type: cell-based; details: LPS-primed bone marrow-derived macrophages of wild type mice, Aβ 1, 5 and 10 μM
Protocol: Bone marrow derived macrophages were generated as described (Severa, M et al. Journal of Biological Chemistry 281:26188-26195 (2006)). Human PBMCs were isolated by from whole blood of healthy volunteers by density gradient centrifugation. Lysis of red blood cells was performed using red blood cell lysis buffer (Sigma). Experiments in PBMCs and macrophages were carried out at a cell density of 2×10^6 cells/ml. All primary cells and cell lines except THP-1 cells were cultured in DMEM supplemented with L-glutamine, ciprofloxacin (Cellgro, Manassas, Va.) and 10% fetal calf serum (Hyclone, Logan, Utah). THP-1 cells were cultured in RPMI supplemented with 10% fetal calf serum (Hyclone), L-glutamine, sodium pyruvate (Cellgro), and ciprofloxacin. One day prior to stimulation, THP-1 cells were differentiated using 0.5 μM PMA for three hours, washed three times and plated for stimulation. All experiments that were performed for Western blot analysis were carried out in serum free DMEM medium. ATP stimulations were carried out at 5 mM one hour prior to harvesting supernatants.
Immortalized macrophage cell lines were generated using the previously described J2 recombinant retrovirus (carrying v-myc and v-raf/mil oncogenes) (Roberson, S. M. & Walker, W. S. Cellular immunology 116:341-351 (1988)). Briefly, primary bone marrow cells were incubated in L929 conditioned medium for 3-4 days to induce macrophage differentiation. Subsequently, cells were infected with J2 recombinant retrovirus. Cells were maintained in culture for 3-6 months slowly weaning off the percentage of L929 supernatant until cells were growing in the absence of conditioned medium.
Macrophage phenotype was verified by surface marker expression for CD11b and F480 as well as a range of functional parameters, including responsiveness to TLR ligands and bacterial uptake. Macrophage cell lines from wild-type (C57BL6), NALP3- and ASC-deficient mice were generated and are referred to as B6-MCLs, NALP3 -MCLs and ASC-MCLs.
Cell culture supernatants were assayed for IL-1β using ELISA kits from BD Biosciences (Franklin Lakes, NJ) according to the manufacturer's instructions. To measure intracellular IL-1β, cells were washed and subjected to three freeze thaw cycles in assay diluent.
(§1) Stimulations were carried out in serum free DMEM medium. Microglial cells and macrophages were primed with 100 U/ml IFNγ (Griess assay, TNF ELISA, real-time quantitative PCR) or 100 ng/ml ultrapure LPS (IL-1β ELISA, FLICA, ASC-CFP microglia cell line assay, Western blot) 1-3 h prior to stimulation with Aβ, revAβ, zymosan, ATP or transfection with dAdT.

[3] = system: mouse microglia; experiment: IL-1β release from LPS-primed mouse microglia (ELISA); type: cell-based; details: LPS-primed primary and immortalized mouse microglia, 10 μM
Protocol: For primary cultures, bone marrow-derived macrophages and microglia were isolated as described^42,43 and cultured in DMEM supplemented with L-glutamine, ciprofloxacin (Cellgro, Manassas, Va.) and 10% fetal calf serum (Hyclone, Logan, Utah) Immortalized macrophage and microglial cell lines were generated using J2 recombinant retrovirus (carrying v-myc and v-raf oncogenes)^44,45. Briefly, primary bone marrow cells were incubated in L929 conditioned medium for 3-4 days to induce macrophage differentiation. Cells were then infected with J2 recombinant retrovirus and maintained in culture until cells were growing in the absence of conditioned medium. Similarly, primary mixed glial cultures were cultured until fully confluent. After two consecutive infections with J2 retrovirus, cells were maintained in normal medium until growth of microglial cells in colonies was observed. The semi-adherent colonies of microglial cells were washed off and cultured in new flasks. […] Microglial cell lines form wild type (C57/BL6), Caspase-1^−/− and IL-IR^−/− mice as well as macrophage cell lines from wild type (C57BL6), NALP3 -, IPAF- and ASC-deficient mice were generated and used for experiments as indicated.
as §1
Cell culture supernatants were assayed for IL-1β and TNFα using ELISA kits from R&D Systems (Minneapolis, Minn.) according to the manufacturer's instructions. Nitric oxide was measured by Griess reaction of nitrites accumulated in the supernatants using chemicals from Sigma.

[4] = system: CCL-3/MIP1 a, CCL4/MIP1β and CXCL2/MIP2; experiment: Chemokine mRNA in microglia (QRT-PCR); type: cell-based, mouse; details: wild type microglial cells, Aβ 10 μM, 6 and 24 h
Protocol: Immortalized murine microglia were seeded in 6 well tissue culture plates, incubated in the absence or presence of 10 μM Aβ, washed with PBS and lysed in 1 mL TRIZOL reagent (Invitrogen). RNA was purified by organic extraction. 5 μg of RNA from each sample was reverse transcribed using multiscribe reverse transcriptase (Applied Biosystems). Oligonucleotide primers were designed using the Primer3 Input PCR primer design program (version 0.4.0.) and QRT-PCR experiments were performed using an iQ Real-Time PCR Detection System (Bio-Rad) and Optical System Software (Version 2.0, Bio-Rad). Relative quantification of mRNA expression was calculated by the comparative cycle method as described by the manufacturer.

Substance: Aβ 1-42 peptide
- formation of fluorescent ASC-CFP clusters [1]: brightly fluorescent clusters of ASC-CFP formed
- IL-1β release induced by Aβ [2]: strong and dose-dependent IL-1β release
- IL-1β release into supernatants induced by the peptide [3]: time-dependent release of IL-1β
- IL-1β release into supernatants induced by the peptide ([3]; listed as fibrillar Aβ): early and pronounced IL-1β release
- gene expression of chemokines CCL-3/MIP1 a, CCL4/MIP1β and CXCL2/MIP2 [4]: time-dependently upregulated
